Measurements from US11242337B2, “Compounds useful for treating gastrointestinal tract disorders” (Ardelyx, Inc., priority 2017, dated 2022).
Where a name gives a salt, the structure may show the parent alone.

Tests used:
NHE3 [1] = biological target: T1, NHE3 (Homo sapiens, UniProt P48764); assay: Cell-based assay of NHE-3 activity (pre-incubation inhibition), human; conditions: human Preincubation
T1 construct: expressed in transfected cells
T1 sequence (P48764 26-834): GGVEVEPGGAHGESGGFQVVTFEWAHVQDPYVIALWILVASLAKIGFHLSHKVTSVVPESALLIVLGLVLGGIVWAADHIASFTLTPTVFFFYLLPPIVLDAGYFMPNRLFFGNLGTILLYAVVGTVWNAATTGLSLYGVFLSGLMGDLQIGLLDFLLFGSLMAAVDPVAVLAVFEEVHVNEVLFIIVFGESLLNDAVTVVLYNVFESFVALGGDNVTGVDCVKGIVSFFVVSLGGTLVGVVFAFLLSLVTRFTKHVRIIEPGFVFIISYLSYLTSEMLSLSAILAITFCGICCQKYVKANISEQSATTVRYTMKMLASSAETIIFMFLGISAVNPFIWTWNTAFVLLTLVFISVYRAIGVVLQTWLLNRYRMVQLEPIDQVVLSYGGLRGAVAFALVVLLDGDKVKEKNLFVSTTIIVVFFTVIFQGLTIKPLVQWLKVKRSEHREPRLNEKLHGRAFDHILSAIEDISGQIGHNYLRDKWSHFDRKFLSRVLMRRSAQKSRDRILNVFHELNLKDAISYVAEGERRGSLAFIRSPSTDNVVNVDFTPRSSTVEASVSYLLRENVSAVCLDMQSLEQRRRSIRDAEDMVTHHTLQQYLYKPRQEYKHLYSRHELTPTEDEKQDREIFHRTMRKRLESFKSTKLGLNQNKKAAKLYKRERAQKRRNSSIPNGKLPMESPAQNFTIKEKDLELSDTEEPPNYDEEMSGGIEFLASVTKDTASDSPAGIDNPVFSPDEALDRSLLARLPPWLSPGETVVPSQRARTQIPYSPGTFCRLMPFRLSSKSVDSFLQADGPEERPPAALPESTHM
T1 sequence (Q99653 2-195 partner limits assumed): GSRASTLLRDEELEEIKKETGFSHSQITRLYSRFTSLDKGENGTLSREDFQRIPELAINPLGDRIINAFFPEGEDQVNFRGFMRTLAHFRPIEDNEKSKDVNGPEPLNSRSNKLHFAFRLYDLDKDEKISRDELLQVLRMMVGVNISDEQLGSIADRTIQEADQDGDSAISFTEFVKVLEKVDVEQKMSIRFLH
Method in brief: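 Activity read as initial rate of BCECF fluorescence ratio change per minute (ex 439/505, em 538 nm) following NH4Cl prepulse acid loading. Compound (0–30 μM) present during 10 min Na+-free acidification at room temperature; cells were PS120 fibroblasts stably co-expressing human NHE3 and NHERF2.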

NHE3 [2] = biological target: T1, NHE3; assay: Cell-based assay of NHE-3 activity (persistent inhibition), human; conditions: human Persistence, 60 min incubation then washout
Method in brief: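 Persistent inhibition: compound (0-30 μM, 60 min, RT, NaCl-HEPES pH 7.4) removed before assay. Human NHE3/NHERF2 PS120 cells were then BCECF-loaded during NH4Cl pulse (30 min, 37 °C), acidified in Na+-free buffer, and Na+ added 10 min after washout; antiport measured as initial fluorescence-ratio change per minute.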

| Structure (SMILES) | % inhibition (NHE3 [1]) | IC50 (NHE3 [1]; 0-30 μM test compound) [nM] | % inhibition (NHE3 [2]) | IC50 (NHE3 [2]) [nM] | pIC50 (NHE3 [1]; 0-30 μM test compound) | pIC50 (NHE3 [2]) |
| --- | --- | --- | --- | --- | --- | --- |
| CC(=O)N1CCN([C@H]2Cc3c(Cl)cc(Cl)cc3[C@@H]2Oc2ccc(S(=O)(=O)NCCOCCOCCNC(=O)NCCCCNC(=O)NCCOCCOCCNS(=O)(=O)c3ccc(O[C@H]4c5cc(Cl)cc(Cl)c5C[C@@H]4N4CCN(C(C)=O)CC4)c(C)c3)cc2C)CC1 [Example 75, 3-[2-(2-[2-[(4-[[(1S,2S)-2-(4-Acetylpiperazin-1-yl)-4,6-dichloro-2,3-dihydro-1H-inden-1-yl]oxy]-3-methylbenzene)sulfonamido]ethoxy]ethoxy)ethyl]-1-[4-([[2-(2-[2-[(4-[[(1S,2S)-2-(4-acetylpiperazin-1-yl)-4,6-dichloro-2,3-dihydro-1H-inden-1-yl]oxy]-3-methylbenzene)sulfonamido]ethoxy]ethoxy)ethyl]carbamoyl]amino)butyl]urea; bis(trifluoroacetic acid)] | B (40-70%) | 100 to 1000 | A (NHE3 < 40%) |  |  |  |
| CN(C)C(=O)N1CCN([C@H]2Cc3c(Cl)cc(Cl)cc3[C@@H]2Oc2ccc(S(=O)(=O)NCCOCCOCCNC(=O)NCCCCNC(=O)NCCOCCOCCNS(=O)(=O)c3ccc(O[C@H]4c5cc(Cl)cc(Cl)c5C[C@@H]4N4CCN(C(=O)N(C)C)CC4)cc3)cc2)CC1 [Example 76, 4-[(1S,2S)-4,6-dichloro-1-[4-[(2-[2-[2-([[4-([[2-(2-[2-[4-(4-[[(1S,2S)-4,6-dichloro-2-[4-(dimethylcarbamoyl)piperazin-1-yl]-2,3-dihydro-1H-inden-1-yl]oxy]benzene)sulfonamido]ethoxy]ethoxy)ethyl]carbamoyl]amino)butyl]carbamoyl]amino)ethoxy]ethoxy]ethyl)sulfamoyl]phenoxy]-2,3-dihydro-1H-inden-2-yl]-N,N-dimethylpiperazine-1-carboxamide] | C (>70%) | < 100 | A (NHE3 < 40%) | > 1000 |  |  |
| Cc1cc(S(=O)(=O)NCCOCCOCCNC(=O)NCCCCNC(=O)NCCOCCOCCNS(=O)(=O)c2ccc(O[C@H]3c4cc(Cl)cc(Cl)c4C[C@@H]3N3CCN(C(=O)N(C)C)CC3)c(C)c2)ccc1O[C@H]1c2cc(Cl)cc(Cl)c2C[C@@H]1N1CCN(C(=O)N(C)C)CC1 [Example 77, 4-[(1S,2S)-4,6-dichloro-1-[4-[(2-[2-[2-([[4-([[2-(2-[2-[(4-[[(1S,2S)-4,6-dichloro-2-[4-(dimethylcarbamoyl)piperazin-1-yl]-2,3-dihydro-1H-inden-1-yl]oxy]-3-methylbenzene)sulfonamido]ethoxy]ethoxy)ethyl]carbamoyl]amino)butyl]carbamoyl]amino)ethoxy]ethoxy]ethyl)sulfamoyl]-2-methylphenoxy]-2,3-dihydro-1H-inden-2-yl]-N,N-dimethylpiperazine-1-carboxamide; bis(trifluoroacetic acid)] | C (>70%) |  | A (NHE3 < 40%) |  | A (NHE3 pIC50 < 6) | A (NHE3 pIC50 < 6) |

Next, values leading:

| % inhibition (NHE3 [1]) | IC50 (NHE3 [1]; 0-30 μM test compound) [nM] | % inhibition (NHE3 [2]) | IC50 (NHE3 [2]) [nM] | pIC50 (NHE3 [1]; 0-30 μM test compound) | pIC50 (NHE3 [2]) | Structure (SMILES) |
| --- | --- | --- | --- | --- | --- | --- |
| C (>70%) |  | C (>70%) | 100 to 1000 |  |  | Cc1cc(S(=O)(=O)NCCOCCOCCNC(=O)NCCCCNC(=O)NCCOCCOCCNS(=O)(=O)c2cc(C)c(O[C@H]3c4cc(Cl)cc(Cl)c4C[C@@H]3N3CCC[C@@H](N)C3)c(C)c2)cc(C)c1O[C@H]1c2cc(Cl)cc(Cl)c2C[C@@H]1N1CCC[C@@H](N)C1 [Example 79, 3-[2-(2-[2-[(4-[[(1S,2S)-2-[(3R)-3-Aminopiperidin-1-yl]-4,6-dichloro-2,3-dihydro-1H-inden-1-yl]oxy]-3,5-dimethylbenzene)sulfonamido]ethoxy]ethoxy)ethyl]-1-[4-([[2-(2-[2-[(4-[[(1S,2S)-2-[(3R)-3-aminopiperidin-1-yl]-4,6-dichloro-2,3-dihydro-1H-inden-1-yl]oxy]3,5-dimethylbenzene)sulfonamido]ethoxy]ethoxy)ethyl]carbamoyl]amino)butyl]urea; hydrochloride] |
| B (40-70%) | 100 to 1000 | B (40-70%) | 100 to 1000 |  |  | Cc1cc(S(=O)(=O)NCCOCCOCCNC(=O)NCCCCNC(=O)NCCOCCOCCNS(=O)(=O)c2cc(C)c(O[C@H]3c4cc(Cl)cc(Cl)c4C[C@@H]3N(C)C)c(C)c2)cc(C)c1O[C@H]1c2cc(Cl)cc(Cl)c2C[C@@H]1N(C)C [Example 80] |
